# Where two headings read alike, the source gives them in different places.
# Assays:
# MYC = details: in vitro; cited from earlier work
# [1] = test system: patients with newly diagnosed glioblastoma
# Text: The phase Ib, dose-escalation part of this study explored escalating oral doses of trotabresib in combination with TMZ in the adjuvant setting and with TMZ plus RT in the concomitant setting. […] Dose-escalation decisions were made by the safety review committee, based on all available safety, pharmacokinetics, pharmacodynamics, and preliminary efficacy information, and a calculation of risk assessment using a Bayesian logistic regression model.
# The primary endpoints of the study were to determine the safety and tolerability, maximum tolerated dose, and/or recommended phase II dose (RP2D) of trotabresib in combination with TMZ as adjuvant therapy, and with TMZ and RT as concomitant therapy. […] Trotabresib pharmacodynamics was an exploratory endpoint.
# Adverse events (AEs) were classified using the Medical Dictionary for Regulatory Activities v18.1 or higher system organ class and preferred term. Severity of AEs was graded based on the patient’s symptoms according to the National Cancer Institute Common Terminology Criteria for Adverse Events v5.0.[35] Dose-limiting toxicities (DLTs) were defined as any of the toxicities described in Supplementary Table S2 occurring within the DLT assessment period (cycle 1 [28 days]), unless the event could clearly be determined to be unrelated to trotabresib. Screening MRI scans were performed after surgical resection and within 28 days (+3 days) prior to initiation of study treatment. Subsequent tumor assessments by MRI or CT were performed at week 10 during the concomitant treatment period and at the end of every other treatment cycle from cycle 2 onwards during the adjuvant and trotabresib monotherapy treatment periods. Best overall response (BOR) was evaluated as complete response (CR), partial response (PR), SD, progressive disease (PD), or not evaluable, according to Response Assessment in Neuro-Oncology criteria for high-grade glioma.[36] Plasma samples were collected during the first treatment cycle for investigation of trotabresib pharmacokinetics and pharmacodynamics. Plasma pharmacokinetic parameters assessed included peak plasma concentration (Cmax), time to peak plasma concentration (tmax), area under the plasma concentration–time curve (AUC), and terminal half-life (t½). Pharmacodynamic markers assessed included blood levels of CCR1 and HEXIM1 mRNA, which are established markers of BET inhibitor target engagement.[17],[22],[37],[38]
# glioblastoma = test system: glioblastoma; parameters: method as in earlier work; details: study discontinued; cited from earlier work
# rhabdomyosarcoma cells = test system: rhabdomyosarcoma cells; parameters: method as in PMID 32200036; details: cited from earlier work
# breast cancer cells = test system: breast cancer cells; parameters: method as in PMID 32848091; details: cited from earlier work
# [2] = adjuvant overall (N = 18), related to labelled drug(s)
# [3] = concomitant overall (N = 14), related to labelled drug(s)
compound,measurement,setting,value
"Cc1sc2c(c1C)C(c1ccc(Cl)cc1)=N[C@@H](CC(=O)OC(C)(C)C)c1nnc(C)n1-2 [JQ1, reference compound]",MYC expression,MYC,downregulated in vitro
"Cn1nnc2c(C(N)=O)ncn2c1=O [TMZ, temozolomide]","ALT increased TRAE, grade 3/4",[1]; [2],1 (6) n (%)
same,"AST increased TRAE, any grade",[1]; [2],2 (11) n (%)
same,"AST increased TRAE, grade 3/4",[1]; [2],0 n (%)
same,"Acneiform dermatitis TRAE, any grade",[1]; [2],1 (6) n (%)
same,"Acneiform dermatitis TRAE, grade 3/4",[1]; [2],0 n (%)
same,"Anemia TRAE, any grade",[1]; [2],3 (17) n (%)
same,"Anemia TRAE, grade 3/4",[1]; [2],0 n (%)
same,"Any TRAE, any grade",[1]; [2],17 (94) n (%)
same,"Any TRAE, grade 3/4",[1]; [2],10 (56) n (%)
same,"Asthenia TRAE, any grade",[1]; [2],6 (33) n (%)
same,"Asthenia TRAE, grade 3/4",[1]; [2],1 (6) n (%)
same,"Blood bilirubin increased TRAE, any grade",[1]; [2],0 n (%)
same,"Blood bilirubin increased TRAE, grade 3/4",[1]; [2],0 n (%)
same,"Decreased appetite TRAE, any grade",[1]; [2],6 (33) n (%)
same,"Decreased appetite TRAE, grade 3/4",[1]; [2],0 n (%)
same,"Diarrhea TRAE, any grade",[1]; [2],5 (28) n (%)
same,"Diarrhea TRAE, grade 3/4",[1]; [2],0 n (%)
same,"Dysgeusia TRAE, any grade",[1]; [2],4 (22) n (%)
same,"Dysgeusia TRAE, grade 3/4",[1]; [2],0 n (%)
same,"Dyspepsia TRAE, any grade",[1]; [2],2 (11) n (%)
same,"Dyspepsia TRAE, grade 3/4",[1]; [2],0 n (%)
same,"Fatigue TRAE, any grade",[1]; [2],2 (11) n (%)
same,"Fatigue TRAE, grade 3/4",[1]; [2],0 n (%)
same,"Hyperbilirubinemia TRAE, any grade",[1]; [2],3 (17) n (%)
same,"Hyperbilirubinemia TRAE, grade 3/4",[1]; [2],0 n (%)
same,"Hyperglycemia TRAE, any grade",[1]; [2],1 (6) n (%)
same,"Hyperglycemia TRAE, grade 3/4",[1]; [2],0 n (%)
same,"Hypophosphatemia TRAE, any grade",[1]; [2],1 (6) n (%)
same,"Hypophosphatemia TRAE, grade 3/4",[1]; [2],0 n (%)
same,"Hypotension TRAE, any grade",[1]; [2],0 n (%)
same,"Hypotension TRAE, grade 3/4",[1]; [2],0 n (%)
same,"Insomnia TRAE, any grade",[1]; [2],1 (6) n (%)
same,"Insomnia TRAE, grade 3/4",[1]; [2],0 n (%)
same,"Intracranial hemorrhage TRAE, any grade",[1]; [2],0 n (%)
same,"Intracranial hemorrhage TRAE, grade 3/4",[1]; [2],0 n (%)
same,"Leukopenia TRAE, any grade",[1]; [2],2 (11) n (%)
same,"Leukopenia TRAE, grade 3/4",[1]; [2],0 n (%)
same,"Lymphopenia TRAE, any grade",[1]; [2],2 (11) n (%)
same,"Lymphopenia TRAE, grade 3/4",[1]; [2],1 (6) n (%)
same,"Nausea TRAE, any grade",[1]; [2],12 (67) n (%)
same,"Nausea TRAE, grade 3/4",[1]; [2],0 n (%)
same,"Neutropenia TRAE, any grade",[1]; [2],7 (39) n (%)
same,"Neutropenia TRAE, grade 3/4",[1]; [2],4 (22) n (%)
same,"Pruritus TRAE, any grade",[1]; [2],0 n (%)
same,"Pruritus TRAE, grade 3/4",[1]; [2],0 n (%)
same,"Rash TRAE, any grade",[1]; [2],1 (6) n (%)
same,"Rash TRAE, grade 3/4",[1]; [2],0 n (%)
same,"Seizure TRAE, any grade",[1]; [2],0 n (%)
same,"Seizure TRAE, grade 3/4",[1]; [2],0 n (%)
same,"Thrombocytopenia TRAE, any grade",[1]; [2],13 (72) n (%)
same,"Thrombocytopenia TRAE, grade 3/4",[1]; [2],9 (50) n (%)
same,"Vomiting TRAE, any grade",[1]; [2],7 (39) n (%)
same,"Vomiting TRAE, grade 3/4",[1]; [2],0 n (%)
same,"ALT increased TRAE, any grade",[1]; [3],1 (7) n (%)
same,"ALT increased TRAE, grade 3/4",[1]; [3],1 (7) n (%)
same,"AST increased TRAE, any grade",[1]; [3],1 (7) n (%)
same,"AST increased TRAE, grade 3/4",[1]; [3],0 n (%)
same,"Acneiform dermatitis TRAE, any grade",[1]; [3],2 (14) n (%)
same,"Acneiform dermatitis TRAE, grade 3/4",[1]; [3],0 n (%)
same,"Anemia TRAE, any grade",[1]; [3],4 (29) n (%)
same,"Anemia TRAE, grade 3/4",[1]; [3],2 (14) n (%)
same,"Any TRAE, any grade",[1]; [3],14 (100) n (%)
same,"Any TRAE, grade 3/4",[1]; [3],9 (64) n (%)
same,"Asthenia TRAE, any grade",[1]; [3],4 (29) n (%)
same,"Asthenia TRAE, grade 3/4",[1]; [3],0 n (%)
same,"Blood bilirubin increased TRAE, any grade",[1]; [3],1 (7) n (%)
same,"Blood bilirubin increased TRAE, grade 3/4",[1]; [3],0 n (%)
same,"Decreased appetite TRAE, any grade",[1]; [3],4 (29) n (%)
same,"Decreased appetite TRAE, grade 3/4",[1]; [3],0 n (%)
same,"Diarrhea TRAE, any grade",[1]; [3],3 (21) n (%)
same,"Diarrhea TRAE, grade 3/4",[1]; [3],0 n (%)
same,"Dysgeusia TRAE, any grade",[1]; [3],4 (29) n (%)
same,"Dysgeusia TRAE, grade 3/4",[1]; [3],0 n (%)
same,"Dyspepsia TRAE, any grade",[1]; [3],2 (14) n (%)
same,"Dyspepsia TRAE, grade 3/4",[1]; [3],0 n (%)
same,"Fatigue TRAE, any grade",[1]; [3],5 (36) n (%)
same,"Fatigue TRAE, grade 3/4",[1]; [3],1 (7) n (%)
same,"Hyperbilirubinemia TRAE, any grade",[1]; [3],2 (14) n (%)
same,"Hyperbilirubinemia TRAE, grade 3/4",[1]; [3],0 n (%)
same,"Hyperglycemia TRAE, any grade",[1]; [3],0 n (%)
same,"Hyperglycemia TRAE, grade 3/4",[1]; [3],0 n (%)
same,"Hypophosphatemia TRAE, any grade",[1]; [3],1 (7) n (%)
same,"Hypophosphatemia TRAE, grade 3/4",[1]; [3],0 n (%)
same,"Hypotension TRAE, any grade",[1]; [3],0 n (%)
same,"Hypotension TRAE, grade 3/4",[1]; [3],0 n (%)
same,"Insomnia TRAE, any grade",[1]; [3],0 n (%)
same,"Insomnia TRAE, grade 3/4",[1]; [3],0 n (%)
same,"Intracranial hemorrhage TRAE, any grade",[1]; [3],0 n (%)
same,"Intracranial hemorrhage TRAE, grade 3/4",[1]; [3],0 n (%)
same,"Leukopenia TRAE, any grade",[1]; [3],1 (7) n (%)
same,"Leukopenia TRAE, grade 3/4",[1]; [3],0 n (%)
same,"Lymphopenia TRAE, any grade",[1]; [3],3 (21) n (%)
same,"Lymphopenia TRAE, grade 3/4",[1]; [3],1 (7) n (%)
same,"Nausea TRAE, any grade",[1]; [3],11 (79) n (%)
same,"Nausea TRAE, grade 3/4",[1]; [3],0 n (%)
same,"Neutropenia TRAE, any grade",[1]; [3],6 (43) n (%)
same,"Neutropenia TRAE, grade 3/4",[1]; [3],4 (29) n (%)
same,"Pruritus TRAE, any grade",[1]; [3],0 n (%)
same,"Pruritus TRAE, grade 3/4",[1]; [3],0 n (%)
same,"Rash TRAE, any grade",[1]; [3],0 n (%)
same,"Rash TRAE, grade 3/4",[1]; [3],0 n (%)
same,"Seizure TRAE, any grade",[1]; [3],0 n (%)
same,"Seizure TRAE, grade 3/4",[1]; [3],0 n (%)
same,"Thrombocytopenia TRAE, any grade",[1]; [3],10 (71) n (%)
same,"Thrombocytopenia TRAE, grade 3/4",[1]; [3],7 (50) n (%)
same,"Vomiting TRAE, any grade",[1]; [3],8 (57) n (%)
same,"Vomiting TRAE, grade 3/4",[1]; [3],0 n (%)
same,"ALT increased TRAE, any grade","[1]; human, in vivo",2 (11) n (%)
same,"TEAEs leading to discontinuation of the labelled study drug(s), patients","[1]; human, in vivo",2 (11) 2 (11) 2 (11) n (%)
same,"TRAEs leading to discontinuation of TMZ, related to labelled drug(s)","[1]; human, in vivo",1 (6) 1 (6) 1 (6) n (%)
same,"TRAEs leading to discontinuation of any study drug, related to labelled drug(s)","[1]; human, in vivo",1 (6) 1 (6) 1 (6) n (%)
same,"TRAEs leading to discontinuation of trotabresib, related to labelled drug(s)","[1]; human, in vivo",1 (6) 1 (6) 1 (6) n (%)
Cc1sc2c(c1C)C(c1ccc(Cl)cc1)=N[C@@H](CC(=O)Nc1ccc(O)cc1)c1nnc(C)n1-2 [OTX015],Clinical activity (primary endpoint 6-month PFS),glioblastoma,lack of clinical activity
same,Antitumor activity as a single agent,rhabdomyosarcoma cells,demonstrated antitumor activity as a single agent
same,Effect on ionizing radiation,rhabdomyosarcoma cells,potentiated the effects of ionizing radiation
CCNC(=O)C[C@@H]1N=C(c2ccc(Cl)cc2)c2cc(OC)ccc2-n2c(C)nnc21 [iBET-762],Expression of the HER2-regulated gene TUBB3,breast cancer cells,upregulated expression
same,Sensitivity to vinorelbine,breast cancer cells; in vitro and in PDX models,increased sensitivity to vinorelbine
